Measurements from patent US20040018560A1, “Crystallized LXR polypeptide in complex with a ligand and screening methods employing same” (priority 2002, published 2004).
Each block holds one molecule with its values, some of them ahead of it.

B1: human LXRβ LBD (ligand binding domain) containing amino acids 214-462 (receptor)
chain: GSEGEGVQLTAAQELMIQQLVAAQLQCNKRSFSDQPKVTPWPLGADPQSRDARQQRFAHFTELAIISVQEIVDFAKQVPGFLQLGREDQIALLKASTIEIMLLETARRYNHETECITFLKDFTYSKDDFHRAGLQVEFINPIFEFSRAMRRLGLDDAEYALLIAINIFSADRPNVQEPGRVEALQQPYVEALLSYTRIKRPQDQLRFPRMLMKLVSLRTLSSVHSEQVFALRLQDKKLPPLLSEIWDVHE
notes: It is entered here as the monomer, so that self-association is the pair m1-m1; also called LXR LBD

Legend:
human LXRα LBD = target: T1, human LXRα LBD (Homo sapiens, UniProt Q13133, H421A); experiment: Gal4-LXRα LBD (wild type and mutant) transactivation, SPAP reporter, transient transfection in CV-1 cells; format: cell-based; conditions: compound 10 μM, 18 hours
T1 construct: LXRα (amino acids 164-447); expressed in transfected cells; host or cells: CV-1 cells
T1 sequence (Q13133 164-447 H421A): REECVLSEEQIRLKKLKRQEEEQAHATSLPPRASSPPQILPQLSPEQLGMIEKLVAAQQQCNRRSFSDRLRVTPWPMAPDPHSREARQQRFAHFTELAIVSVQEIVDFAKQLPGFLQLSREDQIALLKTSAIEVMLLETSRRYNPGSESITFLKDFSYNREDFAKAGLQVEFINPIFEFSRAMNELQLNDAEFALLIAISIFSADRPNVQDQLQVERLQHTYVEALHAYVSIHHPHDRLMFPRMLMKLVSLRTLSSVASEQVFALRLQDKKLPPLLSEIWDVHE
Procedure: FIG. 7A is a bar graph depicting the effect of mutating LXR LBD pocket residues on transcriptional activity, which was determined by measuring the amount of SPAP synthesized in CV-1 cells by a transiently transfected Gal4 fusion of LXRα LBD.
(§1) To explore these differences, site directed mutants were made targeting specific pocket residues that interacted more directly with one compound than the other. […] However, the gauche conformation of I317 extended into a pocket near the beta turn. […] By contrast, O3 of EPC extended into a hydrophilic pocket (see FIG. 6B) which includes residues E281 (E267α), E315 (E301α), and R319 (R305α). Mutations in this region permit identification of the necessary polar interactions for EPC binding. The transactivation capability of gal4-fusions of wild-type and mutant LXRα and LXRβ LBDs were measured by their ability to transcribe secreted placental alkaline phosphatase (SPAP) on a UAS-tk promoter in transient transfection experiments in CV-1 cells. See Laboratory Example 4. […]
(§2) Wild type and mutant LXR transactivation activity was measured in CV-1 cells. […]
(§3) Alkaline phosphatase activity was assayed by adding 200 μl substrate (7 mM p-nitrophenyl phosphate in 1 M diethanolamine/0.28 M sodium chloride/0.5 mM magnesium chloride, pH 9.85) to each well of the plates, incubating at room temperature, and reading absorbance at 405 nm. […]

human LXRβ LBD [1] = target: T2, human LXRβ LBD (Homo sapiens, UniProt P55055, H434A); experiment: Gal4-LXRβ LBD (wild type and mutant) transactivation, SPAP reporter, transient transfection in CV-1 cells; format: cell-based; conditions: LXRβ H435A mutant LBD, compound 10 μM, 18 hours
T2 construct: LXRβ (amino acids 155-462); expressed in transfected cells; host or cells: CV-1 cells
T2 sequence (P55055 155-460 H434A): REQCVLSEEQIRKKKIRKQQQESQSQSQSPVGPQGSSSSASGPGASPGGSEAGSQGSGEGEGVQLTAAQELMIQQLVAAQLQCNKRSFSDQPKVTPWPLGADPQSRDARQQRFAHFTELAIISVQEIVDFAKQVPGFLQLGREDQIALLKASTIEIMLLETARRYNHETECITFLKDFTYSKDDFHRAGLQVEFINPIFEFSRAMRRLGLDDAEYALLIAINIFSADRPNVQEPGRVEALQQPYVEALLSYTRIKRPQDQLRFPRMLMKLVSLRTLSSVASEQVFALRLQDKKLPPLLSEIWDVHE
Procedure: (§4) FIG. 7B is a bar graph depicting the effect of mutating LXR LBD pocket residues on transcriptional activity, which was determined by measuring the amount of SPAP synthesized in CV-1 cells by a transiently transfected Gal4 fusion of LXRβ LBD.
as §1, §2, §3

human LXRβ LBD [2] = target: T3, human LXRβ LBD (Homo sapiens, UniProt P55055, Y334W); experiment: as above; format: cell-based; conditions: LXRβ Y335W mutant LBD, compound 10 μM, 18 hours
T3 construct: LXRβ (amino acids 155-462); expressed in transfected cells; host or cells: CV-1 cells
T3 sequence (P55055 155-460 Y334W): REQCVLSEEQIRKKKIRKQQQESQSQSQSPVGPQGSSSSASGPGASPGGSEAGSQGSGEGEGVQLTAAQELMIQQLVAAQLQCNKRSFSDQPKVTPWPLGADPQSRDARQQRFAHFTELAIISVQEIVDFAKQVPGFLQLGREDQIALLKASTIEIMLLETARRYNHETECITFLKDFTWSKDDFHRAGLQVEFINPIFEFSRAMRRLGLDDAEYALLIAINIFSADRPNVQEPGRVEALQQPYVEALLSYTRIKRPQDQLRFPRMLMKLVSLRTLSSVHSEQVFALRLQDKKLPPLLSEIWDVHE
Procedure: as §4, §1, §2, §3

LXR [3] = experiment: LXR activation (general statements, literature)
LXR [4] = experiment: Ligand binding to LXR
LXR [5] = conditions: both LXR subtypes; compared with the natural ligands; cited from earlier work
LXR [6] = experiment: Co-activator recruitment by LXR; format: biochemical
[7] = target: B1; experiment: X-ray co-crystal structure, LXRβ LBD with EPC and SRC1 peptide
Procedure: Crystallization trials were carried out using the hanging drop method by mixing 2 μl of protein solution with 2 μl of well buffer. Both the LXRβ/ligand complexes crystallized out of 10-12% PEG 3350-8000 with 0.2M salt at 40° C. Usable LXRβ/T0901317 crystals were obtained from a number of salts including NaF, KF, NaCl, KCl, Na formate, Na acetate, and K acetate. The best LXRβ/EPC (24(S), 25-epoxycholesterol) crystals were obtained with ammonium sulfate and lithium sulfate salts. All crystals took 4-6 weeks to grow. Crystals were frozen in LN₂ after transferring stepwise to a cryo buffer containing the well buffer with 30% PEG 400.

[8] = target: the molecule itself; experiment: X-ray crystal structures, homodimer in the asymmetric unit

transcriptional activity (SPAP) with H421A mutant (human LXRα LBD): completely knocked out the activity | transcriptional activity (SPAP) with H435A mutant (human LXRβ LBD [1]): completely knocked out the activity | transcriptional activity (SPAP) with Y335W mutant (human LXRβ LBD [2]): some modulation | binding to LXR (LXR [4]): bound tightly
Molecule: O=S(=O)(c1ccccc1)N(CC(F)(F)F)c1ccc(C(O)(C(F)(F)F)C(F)(F)F)cc1 [T317, N-(2,2,2-trifluoroethyl)-N-[4-(2,2,2-trifluoro-1-hydroxy-1-trifluoromethyl-ethyl)-phenyl]-benzenesulfonamide]
efficacy of LXR activation (LXR [3]): efficacious | potency in activating both LXRs (LXR [5]): as potent

binding to LXR (LXR [4]): do bind to LXR
Molecule: CC(C)CCC[C@@H](C)[C@H]1CC[C@H]2[C@@H]3CC=C4C[C@@H](O)CC[C@]4(C)[C@H]3CC[C@]12C [cholesterol]
recruitment of co-activator (LXR [6]): do not recruit co-activator

binding result [7]: binds
Molecule: CPSSHSSLTERHKILHRLLQQGSPS (also called SRC1(2); SRC peptide) [SRC1 peptide (second LXXLL motif of the nuclear receptor co-activator SRC-1)]

Molecule: B1
binding result [8]: binds
